Source: patent publication US9994546B2, “Cyclopropylamines as LSD1 inhibitors” (Incyte Corporation, priority 2014, dated 2018)
pIC50: −log10 of the molar value.

What follows are compounds tested against LSD-1 enzyme (Homo sapiens (Human), UniProt O60341) (assay: LANCE LSD1/KDM1A demethylase assay (LSD1 histone demethylase biochemical assay)). Settings: 1 nM LSD-1 enzyme, 1 hour preincubation at 25° C., 0.4 μM biotin-labeled Histone H3 peptide substrate.
Protocol: LANCE LSD1/KDM1A demethylase assay—10 μL of 1 nM LSD-1 enzyme (ENZO BML-SE544-0050) in the assay buffer (50 mM Tris, pH 7.5, 0.01% Tween-20, 25 mM NaCl, 5 mM DTT) were preincubated for 1 hour at 25° C. with 0.8 μL compound/DMSO dotted in black 384 well polystyrene plates. […] After stopping the reactions plates were incubated for 30 minutes and read on a PHERAstar FS plate reader (BMG Labtech).
With `N#CCC1(N2CCC(NC3CC3c3ccccc3)CC2)CCC1` (racemic) [Example 1, (1-{4-[(trans-2-Phenylcyclopropyl)amino]piperidin-1-yl}cyclobutyl)acetonitrile] the pIC50 was no less than 7.00. Work on `CN1CC(CC#N)(N2CCC(N[C@@H]3C[C@H]3c3ccccc3)CC2)C1` (relative stereo) [Example 2, (1-Methyl-3-{4-[(trans-2-phenylcyclopropyl)amino]piperidin-1-yl}azetidin-3-yl)acetonitrile] yielded a pIC50 of no less than 7.00. In the case of `N#CCC1(N2CCC(N[C@@H]3C[C@H]3c3ccccc3)CC2)CNC1` (relative stereo) [Example 3, (3-{4-[(trans-2-Phenylcyclopropyl)amino]piperidin-1-yl}azetidin-3-yl)acetonitrile], the pIC50 was no less than 7.00. Compound `N#CCC1(N2CCC(N[C@@H]3C[C@H]3c3ccccc3)CC2)CN(Cc2ccccc2)C1` (relative stereo) [Example 4, (1-Benzyl-3-{4-[(trans-2-phenylcyclopropyl)amino]piperidin-1-yl}azetidin-3-yl)acetonitrile] has a pIC50 of no less than 7.00. For `N#CCC1(N2CCC(N[C@@H]3C[C@H]3c3ccccc3)CC2)CN(CCC(=O)O)C1` (relative stereo) [Example 5, 3-(3-(Cyanomethyl)-3-{4-[(trans-2-phenylcyclopropyl)amino]piperidin-1-yl}azetidin-1-yl)propanoic acid], the pIC50 was no less than 7.00. In the case of `CC(=O)N1CC(CC#N)(N2CCC(N[C@@H]3C[C@H]3c3ccccc3)CC2)C1` (relative stereo) [Example 6, (1-Acetyl-3-{4-[(trans-2-phenylcyclopropyl)amino]piperidin-1-yl}azetidin-3-yl)acetonitrile], the pIC50 was no less than 7.00. Compound `N#CCC1(N2CCC(N[C@@H]3C[C@H]3c3ccccc3)CC2)CN(C(=O)c2ccccc2)C1` (relative stereo) [Example 7, (1-Benzoyl-3-{4-[(trans-2-phenylcyclopropyl)amino]piperidin-1-yl}azetidin-3-yl)acetonitrile] has a pIC50 of no less than 7.00. `COC(=O)N1CC(CC#N)(N2CCC(N[C@@H]3C[C@H]3c3ccccc3)CC2)C1` (relative stereo) [Example 8, Methyl 3-(cyanomethyl)-3-{4-[(trans-2-phenylcyclopropyl)amino]piperidin-1-yl}azetidine-1-carboxylate] gave a pIC50 of no less than 7.00. In the case of `CS(=O)(=O)N1CC(CC#N)(N2CCC(N[C@@H]3C[C@H]3c3ccccc3)CC2)C1` (relative stereo) [Example 9, (1-(Methylsulfonyl)-3-{4-[(trans-2-phenylcyclopropyl)amino]piperidin-1-yl}azetidin-3-yl)acetonitrile], the pIC50 was no less than 7.00. With `N#CCC1(N2CCC(N[C@@H]3C[C@H]3c3ccccc3)CC2)CN(c2ncccc2C#N)C1` (relative stereo) [Example 10, 2-(3-(Cyanomethyl)-3-{4-[(trans-2-phenylcyclopropyl)amino]piperidin-1-yl}azetidin-1-yl)nicotinonitrile] the pIC50 was no less than 7.00. With `N#CCC1(N2CCC(N[C@@H]3C[C@H]3c3ccccc3)CC2)CN(c2ccc(C(=O)O)cc2C#N)C1` (relative stereo) [Example 11, 3-Cyano-4-(3-(cyanomethyl)-3-{4-[(trans-2-phenylcyclopropyl)amino]piperidin-1-yl}azetidin-1-yl)benzoic acid] the pIC50 was 6.30 to 7.00. With `N#CCC1(N2CCC(N[C@@H]3C[C@H]3c3ccccc3)CC2)CN(c2ccccc2C#N)C1` (relative stereo) [Example 12, 2-(3-(Cyanomethyl)-3-{4-[(trans-2-phenylcyclopropyl)amino]piperidin-1-yl}azetidin-1-yl)benzonitrile] the pIC50 was no less than 7.00. `N#CCC1(N2CCC(N[C@@H]3C[C@H]3c3ccccc3)CC2)CN(c2ccc(C#N)cc2)C1` (relative stereo) [Example 13, 4-(3-(Cyanomethyl)-3-{4-[(trans-2-phenylcyclopropyl)amino]piperidin-1-yl}azetidin-1-yl)benzonitrile] showed a pIC50 of no less than 7.00. For `N#CCC1(N2CC(CN[C@@H]3C[C@H]3c3ccccc3)C2)CCC1` (relative stereo) [Example 14, [1-(3-{[(trans-2-Phenylcyclopropyl)amino]methyl}azetidin-1-yl)cyclobutyl]acetonitrile], the pIC50 was no less than 7.00. Work on `CCS(=O)(=O)N1CC(CC#N)(N2CC(CN[C@@H]3C[C@H]3c3ccccc3)C2)C1` (relative stereo) [Example 15, (1′-(Ethylsulfonyl)-3-{[(trans-2-phenylcyclopropyl)amino]methyl}-1,3′-biazetidin-3′-yl)acetonitrile] yielded a pIC50 of no less than 7.00. For `N#CCC1(N2CC(CN[C@@H]3C[C@H]3c3ccccc3)C2)CCNCC1` (relative stereo) [Example 16, [4-(3-{[(trans-2-Phenylcyclopropyl)amino]methyl}azetidin-1-yl)piperidin-4-yl]acetonitrile], the pIC50 was no less than 7.00. `CN1CCC(CC#N)(N2CC(CN[C@@H]3C[C@H]3c3ccccc3)C2)CC1` (relative stereo) [Example 17, [1-Methyl-4-(3-{[(trans-2-phenylcyclopropyl)amino]methyl}azetidin-1-yl)piperidin-4-yl]acetonitrile] gave a pIC50 of no less than 7.00. With `CC(=O)N1CCC(CC#N)(N2CC(CN[C@@H]3C[C@H]3c3ccccc3)C2)CC1` (relative stereo) [Example 18, [1-Acetyl-4-(3-{[(trans-2-phenylcyclopropyl)amino]methyl}azetidin-1-yl)piperidin-4-yl]acetonitrile] the pIC50 was no less than 7.00. `N#CCC1(N2CC(CN[C@@H]3C[C@H]3c3ccccc3)C2)CCN(C(=O)c2ccc(F)cc2)CC1` (relative stereo) [Example 19, [1-(4-Fluorobenzoyl)-4-(3-{[(trans-2-phenylcyclopropyl)amino]methyl}azetidin-1-yl)piperidin-4-yl]acetonitrile] gave a pIC50 of no less than 7.00. With `CS(=O)(=O)N1CCC(CC#N)(N2CC(CN[C@@H]3C[C@H]3c3ccccc3)C2)CC1` (relative stereo) [Example 20, [1-(Methylsulfonyl)-4-(3-{[(trans-2-phenylcyclopropyl)amino]methyl}azetidin-1-yl)piperidin-4-yl]acetonitrile] the pIC50 was no less than 7.00. `N#CCC1(N2CC(CN[C@@H]3C[C@H]3c3ccccc3)C2)CCN(S(=O)(=O)c2ccccc2)CC1` (relative stereo) [Example 21, [4-(3-{[(trans-2-Phenylcyclopropyl)amino]methyl}azetidin-1-yl)-1-(phenylsulfonyl)piperidin-4-yl]acetonitrile] gave a pIC50 of no less than 7.00. Compound `CCOC(=O)N1CCC(CC#N)(N2CC(CN[C@@H]3C[C@H]3c3ccccc3)C2)CC1` (relative stereo) [Example 22, Ethyl 4-(cyanomethyl)-4-(3-{[(trans-2-phenylcyclopropyl)amino]methyl}azetidin-1-yl)piperidine-1-carboxylate] has a pIC50 of no less than 7.00. `CN(C)C(=O)N1CCC(CC#N)(N2CC(CN[C@@H]3C[C@H]3c3ccccc3)C2)CC1` (relative stereo) [Example 23, 4-(Cyanomethyl)-N,N-dimethyl-4-(3-{[(trans-2-phenylcyclopropyl)amino]methyl}azetidin-1-yl)piperidine-1-carboxamide] was tested, and the pIC50 was no less than 7.00. `CC(C)NC(=O)N1CCC(CC#N)(N2CC(CN[C@@H]3C[C@H]3c3ccccc3)C2)CC1` (relative stereo) [Example 24, 4-(Cyanomethyl)-N-isopropyl-4-(3-{[(trans-2-phenylcyclopropyl)amino]methyl}azetidin-1-yl)piperidine-1-carboxamide] was tested, and the pIC50 was no less than 7.00. `N#CCC1(N2CC(CN[C@@H]3C[C@H]3c3ccccc3)C2)CCN(C(=O)Nc2ccc(F)cc2)CC1` (relative stereo) [Example 25, 4-(Cyanomethyl)-N-(4-fluorophenyl)-4-(3-{[(trans-2-phenylcyclopropyl)amino]methyl}azetidin-1-yl)piperidine-1-carboxamide] was tested, and the pIC50 was no less than 7.00. With `N#CCC1(N2CC(CN[C@@H]3C[C@H]3c3ccccc3)C2)CNC1` (relative stereo) [Example 26, (3-{[(trans-2-Phenylcyclopropyl)amino]methyl}-1,3′-biazetidin-3′-yl)acetonitrile] the pIC50 was no less than 7.00. Compound `CN1CCC(N2CC(CN[C@@H]3C[C@H]3c3ccccc3)C2)CC1` (relative stereo) [Example 28, N-{[1-(1-Methylpiperidin-4-yl)azetidin-3-yl]methyl}-trans-2-phenylcyclopropanamine] has a pIC50 of no less than 7.00. `c1ccc([C@@H]2C[C@H]2NCC2CN(C3CCN(c4ccccc4)CC3)C2)cc1` (relative stereo) [Example 29, Trans-2-phenyl-N-{[1-(1-phenylpiperidin-4-yl)azetidin-3-yl]methyl}cyclopropanamine] showed a pIC50 of no less than 7.00. In the case of `CCS(=O)(=O)N1CC(CC#N)(N2CCC(CN[C@@H]3C[C@H]3c3ccccc3)CC2)C1` (relative stereo) [Example 31, [1-(Ethylsulfonyl)-3-(4-{[(trans-2-phenylcyclopropyl)amino]methyl}piperidin-1-yl)azetidin-3-yl]acetonitrile], the pIC50 was 6.30 to 7.00. `N#CCC1(N2CCC(CN[C@@H]3C[C@H]3c3ccccc3)CC2)CCC1` (relative stereo) [Example 32, [1-(4-{[(trans-2-Phenylcyclopropyl)amino]methyl}piperidin-1-yl)cyclobutyl]acetonitrile] was tested, and the pIC50 was no less than 7.00. `N#CCC1(N2CCC(CN[C@@H]3C[C@H]3c3ccccc3)CC2)CNC1` (relative stereo) [Example 33, [3-(4-{[(trans-2-Phenylcyclopropyl)amino]methyl}piperidin-1-yl)azetidin-3-yl]acetonitrile] showed a pIC50 of no less than 7.00. `N#CCC1(N2CCC(CN[C@@H]3C[C@H]3c3ccccc3)CC2)CN(c2ncccc2C#N)C1` (relative stereo) [Example 34, 2-[3-(Cyanomethyl)-3-(4-{[(trans-2-phenylcyclopropyl)amino]methyl}piperidin-1-yl)azetidin-1-yl]nicotinonitrile] was tested, and the pIC50 was no less than 7.00.
